Calls of active or inactive are those of the source. The rule behind the calls is not given here.
Key:
Acinetobacter baumannii [1] = experiment: Selectivity ratio of MBC for Acinetobacter baumannii ATCC19606 to MIC for Acinetobacter baumannii ATCC19606; type: functional
Acinetobacter baumannii [2] = experiment: Antibacterial activity against Acinetobacter baumannii ATCC19606 incubated for 18 to 24 hrs; type: functional; details: time 18-24 hrs
Staphylococcus aureus [3] = experiment: Selectivity ratio of MBC for Staphylococcus aureus clinical isolate to MIC for Staphylococcus aureus clinical isolate; type: functional
Staphylococcus aureus [4] = experiment: Antibacterial activity against Staphylococcus aureus clinical isolate incubated for 18 to 24 hrs; type: functional; details: time 18-24 hrs
Staphylococcus aureus [5] = experiment: Selectivity ratio of MBC for methicillin-resistant Staphylococcus aureus ATCC43300 to MIC for methicillin-resistant Staphylococcus aureus ATCC43300; type: functional
Bacillus subtilis [6] = experiment: Selectivity ratio of MBC for penicillin-susceptible Bacillus subtilis ATCC9372 to MIC for penicillin-susceptible Bacillus subtilis ATCC9372; type: functional
Bacillus subtilis [7] = experiment: Antibacterial activity against penicillin-susceptible Bacillus subtilis ATCC9372 incubated for 18 to 24 hrs; type: functional; details: time 18-24 hrs
Staphylococcus aureus [8] = experiment: Antibacterial activity against methicillin-resistant Staphylococcus aureus ATCC43300 incubated for 18 to 20 hrs; type: functional; details: time 18-20 hrs
Staphylococcus aureus [9] = experiment: Selectivity ratio of MBC for erythromycin-susceptible Staphylococcus aureus ATCC25923 to MIC for erythromycin-susceptible Staphylococcus aureus ATCC25923; type: functional
Staphylococcus aureus [10] = experiment: Antibacterial activity against erythromycin-susceptible Staphylococcus aureus ATCC25923 incubated for 18 to 24 hrs; type: functional; details: time 18-24 hrs
Streptococcus pyogenes [11] = experiment: Antibacterial activity against erythromycin-resistant Streptococcus pyogenes 2 clinical isolate assessed as bacterial growth inhibition incubated for 20 hrs by CLSI based broth microdilution method; type: functional
[12] = tested on: Staphylococcus epidermidis; experiment: Antibacterial activity against penicillin-resistant Staphylococcus epidermidis clinical isolate assessed as bacterial growth inhibition incubated for 20 hrs by CLSI based broth microdilution method; type: functional
Staphylococcus aureus [13] = experiment: Antibacterial activity against Staphylococcus aureus clinical isolate assessed as bacterial growth inhibition incubated for 20 hrs by CLSI based broth microdilution method; type: functional
Staphylococcus aureus [14] = experiment: Antibacterial activity against penicillin-resistant Staphylococcus aureus ATCC31007 assessed as bacterial growth inhibition incubated for 20 hrs by CLSI based broth microdilution method; type: functional
Staphylococcus aureus [15] = experiment: Antibacterial activity against methicillin-resistant Staphylococcus aureus ATCC43300 assessed as bacterial growth inhibition incubated for 20 hrs by CLSI based broth microdilution method; type: functional
Klebsiella pneumoniae = experiment: Antibacterial activity against Klebsiella pneumoniae ATCC BAA-1902 assessed as bacterial growth inhibition incubated for 20 hrs by CLSI based broth microdilution method; type: functional
Acinetobacter baumannii [16] = experiment: Antibacterial activity against Acinetobacter baumannii ATCC19606 assessed as bacterial growth inhibition incubated for 20 hrs by CLSI based broth microdilution method; type: functional
Escherichia coli [17] = experiment: Antibacterial activity against wild-type Escherichia coli BW25113 assessed as bacterial growth inhibition incubated for 20 hrs by CLSI based broth microdilution method; type: functional
Escherichia coli [18] = experiment: Antibacterial activity against penicillin-susceptible Escherichia coli ATCC25922 assessed as bacterial growth inhibition incubated for 20 hrs by CLSI based broth microdilution method; type: functional
Enterococcus faecium [19] = experiment: Antibacterial activity against vancomycin-susceptible Enterococcus faecium ATCC19434 assessed as bacterial growth inhibition incubated for 20 hrs by CLSI based broth microdilution method; type: functional
Enterococcus faecalis [20] = experiment: Antibacterial activity against vancomycin-susceptible Enterococcus faecalis ATCC29212 assessed as bacterial growth inhibition incubated for 20 hrs by CLSI based broth microdilution method; type: functional
Streptococcus pyogenes [21] = experiment: Antibacterial activity against erythromycin-susceptible Streptococcus pyogenes 1 assessed as bacterial growth inhibition incubated for 20 hrs by CLSI based broth microdilution method; type: functional
Staphylococcus aureus [22] = experiment: Antibacterial activity against erythromycin-susceptible Staphylococcus aureus ATCC25923 assessed as bacterial growth inhibition incubated for 20 hrs by CLSI based broth microdilution method; type: functional
Bacillus pumilus = experiment: Antibacterial activity against penicillin-susceptible Bacillus pumilus CMCC63202 assessed as bacterial growth inhibition incubated for 20 hrs by CLSI based broth microdilution method; type: functional
Bacillus subtilis [23] = experiment: Antibacterial activity against penicillin-susceptible Bacillus subtilis ATCC9372 assessed as bacterial growth inhibition incubated for 20 hrs by CLSI based broth microdilution method; type: functional
Enterococcus faecalis [24] = experiment: Antibacterial activity against vancomycin-resistant Enterococcus faecalis ATCC51299 assessed as bacterial growth inhibition incubated for 20 hrs by CLSI based broth microdilution method; type: functional
Enterococcus faecium [25] = experiment: Antibacterial activity against vancomycin-resistant Enterococcus faecium ATCC51559 assessed as bacterial growth inhibition incubated for 20 hrs by CLSI based broth microdilution method; type: functional
Staphylococcus aureus [26] = experiment: Induction of resistance development in Staphylococcus aureus ATCC25923 assessed as fold increase in MIC at 0.5 times MIC measured after 32 days by multi-passage resistance assay relative to control; type: functional; details: time 32.0 day
Staphylococcus aureus [27] = experiment: Inhibition of biofilm formation of Staphylococcus aureus ATCC25923 incubated for 20 hrs by crystal violet staining based analysis; type: functional, organism-based
Staphylococcus aureus [28] = experiment: Inhibition of biofilm formation of Staphylococcus aureus ATCC25923 at 0.5 ug/ml incubated for 20 hrs by crystal violet staining based analysis relative to control; type: functional
Bacillus subtilis [29] = experiment: Induction of morphological change in Bacillus subtilis ATCC9372 assessed as increase in cell length at 0.5 times MIC by phase contrast microscopy; type: functional, organism-based
[30] = biological target: T1, Cell division protein FtsZ (Bacillus subtilis) (UniProt A5Z1V5); experiment: Induction of FtsZ polymerization in Bacillus subtilis at 2.5 to 10 ug/ml preincubated with compound followed by GTP addition by absorbance based assay; details: dose 2.5-10 µg/ml, time 40.0 min, TDE = time-dependent effect
T1 sequence (whole entry): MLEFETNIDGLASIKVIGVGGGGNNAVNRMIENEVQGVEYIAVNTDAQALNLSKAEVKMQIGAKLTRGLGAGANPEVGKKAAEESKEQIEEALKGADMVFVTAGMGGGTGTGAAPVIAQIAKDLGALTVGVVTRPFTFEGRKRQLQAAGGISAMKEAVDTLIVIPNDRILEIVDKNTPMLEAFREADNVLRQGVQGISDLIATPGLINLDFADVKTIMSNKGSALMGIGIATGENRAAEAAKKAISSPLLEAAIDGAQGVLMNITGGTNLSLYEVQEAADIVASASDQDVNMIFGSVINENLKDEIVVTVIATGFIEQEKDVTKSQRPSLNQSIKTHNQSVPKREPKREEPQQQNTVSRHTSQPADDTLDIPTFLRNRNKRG

[31] = biological target: T1, Cell division protein FtsZ (Bacillus subtilis); experiment: Induction of FtsZ polymerization in Bacillus subtilis preincubated for 10 mins followed by GTP addition measured upto 30 mins by absorbance based assay; details: dose 2.5-10 µg/ml, time 40.0 min
[32] = biological target: T1, Cell division protein FtsZ (Bacillus subtilis); experiment: Induction of FtsZ polymerization in Bacillus subtilis assessed as bundling of FtsZ protofilaments at 10 ug/ml preincubated for 15 mins followed by GTP addition measured after 10 mins by TEM analysis; details: dose 10.0 µg/ml, time 25.0 min
Staphylococcus aureus [33] = experiment: Induction of membrane potential depolarization in Staphylococcus aureus ATCC25923 measured after 20 mins by diSC35 dye based spectroscopy; type: functional, organism-based
Staphylococcus aureus [34] = experiment: Disruption of inner membrane in Staphylococcus aureus ATCC25923 measured after 12 mins by PI staining based analysis; type: functional, organism-based
Staphylococcus aureus [35] = experiment: Disruption of inner membrane in Staphylococcus aureus ATCC25923 by PI staining based analysis; type: functional, organism-based; details: time 12.0 min, TDE = time-dependent effect
Staphylococcus aureus [36] = experiment: Induction of morphological change in Staphylococcus aureus ATCC25923 assessed as loss of bacterial membrane integrity at 16 times MIC incubated for 2 hrs by TEM analysis; type: functional, organism-based
Staphylococcus aureus [37] = experiment: Induction of morphological change in Staphylococcus aureus ATCC25923 assessed as leakage of cell contents at 16 times MIC incubated for 2 hrs by TEM analysis; type: functional, organism-based
[38] = Hemolytic activity in mouse erythrocytes at 128 ug/ml incubated for 1 hr by absorbance based assay; type: toxicity, cell-based, Erythrocyte; details: dose 128 µg/ml, read-out: Activity
Escherichia coli [39] = experiment: Induction of membrane potential depolarization in Escherichia coli ATCC25922 measured after 20 mins by diSC35 dye based spectroscopy; type: functional, organism-based
Escherichia coli [40] = experiment: Disruption of inner membrane in Escherichia coli ATCC25922 measured after 12 mins by PI staining based analysis; type: functional, organism-based
Escherichia coli [41] = experiment: Disruption of inner membrane in Escherichia coli ATCC25922 by PI staining based analysis; type: functional, organism-based; details: time 12.0 min, TDE = time-dependent effect
Escherichia coli [42] = experiment: Disruption of outer membrane in Escherichia coli ATCC25922 measured after 10 mins by NPN dye based analysis; type: functional, organism-based; details: dose 4-16 µg/ml
[43] = Hemolytic activity in mouse erythrocytes at 8 ug/ml incubated for 1 hr by absorbance based assay; type: toxicity, cell-based, Erythrocyte; details: at 8 µg/mL, read-out: Activity
[44] = Hemolytic activity in mouse erythrocytes at 16 ug/ml incubated for 1 hr by absorbance based assay; type: toxicity, cell-based, Erythrocyte; details: at 16 µg/mL, read-out: Activity
Staphylococcus aureus [45] = experiment: Antibacterial activity against Staphylococcus aureus ATCC25923 infected in Kunming mouse model assessed as bacterial growth reduction at 25 mg/kg, ip; type: functional, organism-based

SMILES: Cc1ccccc1-c1c[n+](C)c(-c2ccc(C(C)(C)C)cc2)cc1/C=C/c1ccc(O)cc1.[I-]
- Ratio (Acinetobacter baumannii [1]): 4
- MBC (Acinetobacter baumannii [2]): 16 µg/mL
- Ratio (Staphylococcus aureus [3]): 8
- MBC (Staphylococcus aureus [4]): 4 µg/mL
- Ratio (Staphylococcus aureus [5]): 16
- Ratio (Bacillus subtilis [6]): 4
- MBC (Bacillus subtilis [7]): 2 µg/mL
- MBC (Staphylococcus aureus [8]): 2 µg/mL
- Ratio (Staphylococcus aureus [9]): 32
- MBC (Staphylococcus aureus [10]): 2 µg/mL
- MIC (Streptococcus pyogenes [11]): 2 µg/mL
- MIC [12]: 2 µg/mL
- MIC (Staphylococcus aureus [13]): 0.125 µg/mL
- MIC (Staphylococcus aureus [14]): 1 µg/mL
- MIC (Staphylococcus aureus [15]): 0.125 µg/mL
- MIC (Klebsiella pneumoniae): > 64 µg/mL
- MIC (Acinetobacter baumannii [16]): 4 µg/mL
- MIC (Escherichia coli [17]): > 64 µg/mL
- MIC (Escherichia coli [18]): 32 µg/mL
- MIC (Enterococcus faecium [19]): 2 µg/mL
- MIC (Enterococcus faecalis [20]): 2 µg/mL
- MIC (Streptococcus pyogenes [21]): 1 µg/mL
- MIC (Staphylococcus aureus [22]): 0.062 µg/mL
- MIC (Bacillus pumilus): 1 µg/mL
- MIC (Bacillus subtilis [23]): 0.5 µg/mL
- MIC (Enterococcus faecalis [24]): 2 µg/mL
- MIC (Enterococcus faecium [25]): 2 µg/mL
- fold change (FC) (Staphylococcus aureus [26]): 2
- inhibition (Staphylococcus aureus [27]): Dose-Dependent Effect
- inhibition at 0.5 µg/mL (Staphylococcus aureus [28]): 39%
- Activity (Bacillus subtilis [29]): Active
- Activity [30]: Tde
- Activity [31]: Dose-Dependent Effect
- Activity [32]: Active
- Activity (Staphylococcus aureus [33]): Dose-Dependent Effect
- Activity (Staphylococcus aureus [34]): Dose-Dependent Effect
- Activity (Staphylococcus aureus [35]): Tde
- Activity (Staphylococcus aureus [36]): Active
- Activity (Staphylococcus aureus [37]): Active
- hemolysis at 1 h, 128 ug/ml [38]: 7.59%

SMILES: Cc1ccccc1-c1c[n+](C)c(-c2ccc(C(C)(C)C)cc2)cc1/C=C/c1ccc(C(C)(C)C)cc1.[I-]
- Ratio (Acinetobacter baumannii [1]): 4
- MBC (Acinetobacter baumannii [2]): 2 µg/mL
- Ratio (Staphylococcus aureus [3]): 2
- MBC (Staphylococcus aureus [4]): 0.5 µg/mL
- Ratio (Staphylococcus aureus [5]): 1
- Ratio (Bacillus subtilis [6]): 32
- MBC (Bacillus subtilis [7]): 4 µg/mL
- MBC (Staphylococcus aureus [8]): 0.25 µg/mL
- Ratio (Staphylococcus aureus [9]): 4
- MBC (Staphylococcus aureus [10]): 0.5 µg/mL
- MIC (Streptococcus pyogenes [11]): 2 µg/mL
- MIC [12]: 0.5 µg/mL
- MIC (Staphylococcus aureus [13]): 0.25 µg/mL
- MIC (Staphylococcus aureus [14]): 1 µg/mL
- MIC (Staphylococcus aureus [15]): 0.25 µg/mL
- MIC (Klebsiella pneumoniae): 4 µg/mL
- MIC (Acinetobacter baumannii [16]): 0.5 µg/mL
- MIC (Escherichia coli [17]): 2 µg/mL
- MIC (Escherichia coli [18]): 4 µg/mL
- MIC (Enterococcus faecium [19]): 0.125 µg/mL
- MIC (Enterococcus faecalis [20]): 1 µg/mL
- MIC (Streptococcus pyogenes [21]): 2 µg/mL
- MIC (Staphylococcus aureus [22]): 0.125 µg/mL
- MIC (Bacillus pumilus): 0.5 µg/mL
- MIC (Bacillus subtilis [23]): 0.125 µg/mL
- MIC (Enterococcus faecalis [24]): 0.25 µg/mL
- MIC (Enterococcus faecium [25]): 0.5 µg/mL
- fold change (FC) (Staphylococcus aureus [26]): 2
- inhibition (Staphylococcus aureus [27]): Dose-Dependent Effect
- inhibition at 0.5 µg/mL (Staphylococcus aureus [28]): 28.8%
- Activity (Bacillus subtilis [29]): Active
- Activity [30]: Tde
- Activity [31]: Dose-Dependent Effect
- Activity [32]: Active
- Activity (Staphylococcus aureus [33]): Dose-Dependent Effect
- Activity (Escherichia coli [39]): Dose-Dependent Effect
- Activity (Staphylococcus aureus [34]): Dose-Dependent Effect
- Activity (Staphylococcus aureus [35]): Tde
- Activity (Escherichia coli [40]): Dose-Dependent Effect
- Activity (Escherichia coli [41]): Tde
- Activity (Escherichia coli [42]): Dose-Dependent Effect
- Activity (Staphylococcus aureus [36]): Active
- Activity (Staphylococcus aureus [37]): Active
- hemolysis at 1 h, 8 ug/ml [43]: 8.29%
- hemolysis at 1 h, 16 ug/ml [44]: 18.9%
- Activity (Staphylococcus aureus [45]): Active

Source: ChEMBL document CHEMBL5537115, “New broad-spectrum and potent antibacterial agents with dual-targeting mechanism: Promoting FtsZ polymerization and disrupting bacterial membranes” (Eur J Med Chem, 2024)
